Source: US11098063B2, “Diazabicyclic substituted imidazopyrimidines and their use for the treatment of breathing disorders” (Bayer Aktiengesellschaft, priority 2017, dated 2021)

How the values were obtained:
Type in all cases: cell-based
human TASK-1 [1] = molecular target: T1, human TASK-1 (Homo sapiens (Human), UniProt O14649); assay: Two-electrode voltage clamp analysis of human TASK-1 channel in Xenopus laevis oocytes; settings: human TASK-1 expressed in Xenopus laevis oocytes, room temperature
Protocol: (§1) B-1. In Vitro Electrophysiological Analysis of the Human TASK-1 and TASK-3 Channels Via Two-Electrode Voltage Clamp Technique in Xenopus laevis Oocytes
(§2) Xenopus laevis oocytes were selected as described elsewhere by way of illustration [Decher et al., FEBS Lett. 492, 84-89 (2001)]. Subsequently, the oocytes were injected with 0.5-5 ng of a cRNA solution coding for TASK-1 or TASK-3. For the electrophysiological analysis of the channel proteins expressed in the oocytes, the two-electrode voltage clamp technique [Stühmer, Methods Enzymol. 207, 319-339 (1992)] was used. The measurements were conducted as described [Decher et al., FEBS Lett. 492, 84-89 (2001)] at room temperature (21-22° C.) using a Turbo TEC 10CD amplifier (NPI), recorded at 2 kHz and filtered with 0.4 kHz. Substance administration was performed using a gravitation-driven perfusion system. Here, the oocyte is located in a measuring chamber and exposed to the solution stream of 10 ml/min. The level in the measuring chamber is monitored and regulated by sucking off the solution using a peristaltic pump.

human TASK-3 [2] = molecular target: T2, human TASK-3 (Homo sapiens (Human), UniProt Q9NPC2); assay: Two-electrode voltage clamp analysis of human TASK-3 channel in Xenopus laevis oocytes; settings: human TASK-3 expressed in Xenopus laevis oocytes, room temperature
Protocol: as §1, §2

human TASK-1 [3] = molecular target: T1, human TASK-1; assay: Inhibition of recombinant TASK-1 in stably transfected CHO cells (voltage-sensitive dye, KCl depolarization); settings: depolarization by 40 mM potassium chloride
Summary of the method: (§3)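 Stably transfected CHO cells loaded with a voltage-sensitive membrane-potential dye were depolarized with 40 mM KCl in the presence of compound. IC50 is the concentration blocking half of the KCl-induced depolarization.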

human TASK-3 [4] = molecular target: T2, human TASK-3; assay: Inhibition of recombinant TASK-3 in stably transfected CHO cells (voltage-sensitive dye, KCl depolarization); settings: depolarization by 40 mM potassium chloride
Summary of the method: as §3

T1 sequence (O14649 whole entry): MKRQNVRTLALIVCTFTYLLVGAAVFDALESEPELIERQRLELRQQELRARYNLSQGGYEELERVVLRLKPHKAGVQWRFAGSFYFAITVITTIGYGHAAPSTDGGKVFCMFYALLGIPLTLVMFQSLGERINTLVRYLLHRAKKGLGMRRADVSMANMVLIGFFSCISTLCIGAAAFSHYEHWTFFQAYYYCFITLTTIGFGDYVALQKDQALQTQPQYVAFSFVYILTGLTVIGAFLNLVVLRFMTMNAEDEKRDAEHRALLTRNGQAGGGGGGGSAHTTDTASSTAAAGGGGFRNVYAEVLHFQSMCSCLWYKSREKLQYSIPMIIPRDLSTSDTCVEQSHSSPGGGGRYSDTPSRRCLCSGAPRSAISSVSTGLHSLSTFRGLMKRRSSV
T2 sequence (Q9NPC2 whole entry): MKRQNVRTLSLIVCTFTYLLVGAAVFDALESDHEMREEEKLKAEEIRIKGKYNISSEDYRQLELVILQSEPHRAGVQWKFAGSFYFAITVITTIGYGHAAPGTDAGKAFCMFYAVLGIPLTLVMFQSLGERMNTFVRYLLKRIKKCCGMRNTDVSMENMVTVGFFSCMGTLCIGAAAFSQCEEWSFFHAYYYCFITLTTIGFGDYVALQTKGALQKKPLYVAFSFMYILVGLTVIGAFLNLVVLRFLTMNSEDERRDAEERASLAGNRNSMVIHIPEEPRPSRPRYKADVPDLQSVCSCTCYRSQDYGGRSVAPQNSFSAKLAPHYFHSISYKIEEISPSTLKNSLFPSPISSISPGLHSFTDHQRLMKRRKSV

SMILES | IC50 (human TASK-1 [1]) | IC50 (human TASK-3 [2]) | IC50 (human TASK-1 [3]) | IC50 (human TASK-3 [4])
COc1ccc(Cl)c(C(=O)N2CC3CCC2CN3Cc2c(-c3ccc(C(C)C)cc3)nc3ncccn23)n1 (single isomer, unassigned) [Example 26, (3-Chloro-6-methoxypyridin-2-yl)(5-{[2-(4-isopropylphenyl)imidazo[1,2-a]pyrimidin-3-yl]methyl}-2,5-diazabicyclo[2.2.2]oct-2-yl)methanone] | 31.2 ± 5.8 nM | 140 ± 34.6 nM | 1400 nM | 16 nM
CC(C)c1ccc(-c2nc3ncccn3c2CN2CC3CCC2CN3C(=O)c2ncoc2C2CC2)cc1 (single isomer, unassigned) [Example 27, (5-Cyclopropyl-1,3-oxazol-4-yl)(5-{[2-(4-isopropylphenyl)imidazo[1,2-a]pyrimidin-3-yl]methyl}-2,5-diazabicyclo[2.2.2]oct-2-yl)methanone] | 17.9 ± 2.2 nM | 367 ± 67.6 nM | 1200 nM | 10 nM
CC(C)c1ccc(-c2nc3ncccn3c2CN2CC3COCC(C2)N3C(=O)c2cccc(OC(F)F)n2)cc1 [Example 19, [6-(Difluoromethoxy)pyridin-2-yl](7-{[2-(4-isopropylphenyl)imidazo[1,2-a]pyrimidin-3-yl]methyl}-3-oxa-7,9-diazabicyclo[3.3.1]non-9-yl)methanone] | 239 ± 2.7 nM | 774 ± 67.1 nM | 22000 nM | 59 nM
COc1ccc(F)c(C(=O)N2CC3CCC2CN3Cc2c(-c3ccc(Cl)cc3)nc3ncccn23)n1 (stereo not drawn) [Example 41] | 44.4 ± 4.4 nM | 71.8 ± 15.5 nM | 1500 nM | 100 nM
O=C(c1ccccc1F)N1C2CCC1CN(Cc1c(-c3ccc(C4CC4)cc3)nc3ncccn13)C2 [Example 133, (3-{[2-(4-cyclopropylphenyl)imidazo[1,2-a]pyrimidin-3-yl]methyl}-3,8-diazabicyclo[3.2.1]octan-8-yl)(2-fluorophenyl)methanone] | – | – | 1600 nM | 180 nM
O=C(C1CCCC1)N1C2CCC1CN(Cc1c(-c3ccc(C4CC4)cc3)nc3ncccn13)C2 [Example 134, cyclopentyl(3-{[2-(4-cyclopropylphenyl)imidazo[1,2-a]pyrimidin-3-yl]methyl}-3,8-diazabicyclo[3.2.1]octan-8-yl)methanone] | – | – | 770 nM | 97 nM
COc1ccc(F)c(C(=O)N2C3CCC2CN(Cc2c(-c4ccc(C5CC5)cc4)nc4ncccn24)C3)n1 [Example 135, (3-{[2-(4-cyclopropylphenyl)imidazo[1,2a]pyrimidin-3-yl]methyl}-3,8-diazabicyclo[3.2.1]octan-8-yl)(3-fluoro-6methoxypyridin-2-yl)methanone] | – | – | 420 nM | 34 nM
COc1ccc(Cl)c(C(=O)N2C3CCC2CN(Cc2c(-c4ccc(C5CC5)cc4)nc4ncccn24)C3)n1 [Example 136, (3-chloro-6-methoxypyridin-2-yl)(3-{[2-(4-cyclopropylphenyl)imidazo[1,2-a]pyrimidin-3-yl]methyl}-3,8-diazabicyclo[3.2.1]octan-8-yl)methanone] | – | – | 320 nM | 41 nM
COc1cccc(C(=O)N2C3CCC2CN(Cc2c(-c4ccc(C5CC5)cc4)nc4ncccn24)C3)n1 [Example 137, (3-{[2-(4-cyclopropylphenyl)imidazo[1,2-a]pyrimidin-3-yl]methyl}-3,8-diazabicyclo[3.2.1]octan-8-yl)(6-methoxypyridin-2-yl)methanone] | – | – | 1100 nM | 180 nM
O=C(c1cccc(OC(F)F)n1)N1C2CCC1CN(Cc1c(-c3ccc(C4CC4)cc3)nc3ncccn13)C2 [Example 138, (3-{[2-(4-cyclopropylphenyl)imidazo[1,2-a]pyrimidin-3-yl]methyl}-3,8-diazabicyclo[3.2.1]octan-8-yl)[6-(difluoromethoxy)pyridin-2-yl]methanone] | – | – | 3200 nM | 290 nM
O=C(c1ncoc1C1CC1)N1C2CCC1CN(Cc1c(-c3ccc(C4CC4)cc3)nc3ncccn13)C2 [Example 139, (5-cyclopropyl-1,3-oxazol-4-yl)(3-{[2-(4-cyclopropylphenyl)imidazo[1,2-a]pyrimidin-3-yl]methyl}-3,8-diazabicyclo[3.2.1]octan-8-yl)methanone] | – | – | 4500 nM | 470 nM
